Among the data in PubChem BioAssay (NCI) are TGI and GI50 values, retold here.

Several values for one entry are separate records, joined by “and”; a condition that tells them apart may be missing. Equal entries are not always repeated.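 Protocol summary: plate cells (96-well), add compound at 5 concentrations, incubate 48 h, interpolate endpoints linearly. GI50 marks 50% less growth. TGI: concentration producing complete growth inhibition.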 Some results are limits rather than exact numbers.

One test relates to SK-OV-3 ovarian. Description: growth of human tumour cells (NCI), 48 h.
For `COc1ccc(C2Oc3c(OC)cc(CCCO)cc3C2CO)cc1OC` (stereo not given), the TGI was > 100 µM.
On to `COc1cc2c3cc1Oc1c(OC)c(OC)cc4c1C(Cc1ccc(O)c(c1)Oc1ccc(cc1)CC3N(C)CC2)CN(C)C4` (stereo not given), for which the TGI came to 47.9 µM.
As to `COc1cc2[nH]c(=O)c3cc(-c4ccccc4)cc4c(Cl)nc(c1OC)c2c43`, the TGI is > 73.9 µM.

A further test deals with NCI-H226 lung. The experiment in a line: growth of human tumour cells (NCI), 48 h.
Consider `CCc1nc(N)nc(N)c1-c1ccc([N+](=O)[O-])c(NCc2ccccc2)c1`, for which the TGI amounted to 46.8 µM.
The same measure, in the same setting: under `COc1ccc(C2Oc3c(OC)cc(CCCO)cc3C2CO)cc1OC` (stereo not given) stands > 100 µM; under `COc1cc2c3cc1Oc1c(OC)c(OC)cc4c1C(Cc1ccc(O)c(c1)Oc1ccc(cc1)CC3N(C)CC2)CN(C)C4` (stereo not given), 68.9 µM; under `COc1cc2[nH]c(=O)c3cc(-c4ccccc4)cc4c(Cl)nc(c1OC)c2c43`, > 100 µM.

A further test concerns RPMI-8226 leukemia. Description: growth of human tumour cells (NCI), 48 h.
In turn, `CCc1nc(N)nc(N)c1-c1ccc([N+](=O)[O-])c(NCc2ccccc2)c1` came in with a TGI of 32.2 µM.
Regarding `COc1ccc(C2Oc3c(OC)cc(CCCO)cc3C2CO)cc1OC` (stereo not given), the TGI was 60.4 µM and > 100 µM.
On to `COc1cc2c3cc1Oc1c(OC)c(OC)cc4c1C(Cc1ccc(O)c(c1)Oc1ccc(cc1)CC3N(C)CC2)CN(C)C4` (stereo not given), for which the TGI was found to be 47.6 µM.
For `COc1cc2[nH]c(=O)c3cc(-c4ccccc4)cc4c(Cl)nc(c1OC)c2c43`, the TGI is > 100 µM.

The next test relates to SW-620 colon. The experiment in a line: growth of human tumour cells (NCI), 48 h.
For the compound `CCc1nc(N)nc(N)c1-c1ccc([N+](=O)[O-])c(NCc2ccccc2)c1`, the TGI stood at 42.9 µM.
In the case of `COc1ccc(C2Oc3c(OC)cc(CCCO)cc3C2CO)cc1OC` (stereo not given), the TGI was > 100 µM.
Same read-out and setting: the result for `COc1cc2c3cc1Oc1c(OC)c(OC)cc4c1C(Cc1ccc(O)c(c1)Oc1ccc(cc1)CC3N(C)CC2)CN(C)C4` (stereo not given) reads 30 µM; that for `COc1cc2[nH]c(=O)c3cc(-c4ccccc4)cc4c(Cl)nc(c1OC)c2c43`, > 66.1 µM.

Another test concerns EKVX NSCLC. The experiment in a line: growth of human tumour cells (NCI), 48 h.
In turn, `CCc1nc(N)nc(N)c1-c1ccc([N+](=O)[O-])c(NCc2ccccc2)c1` registered a TGI of 41.6 µM.
Still for that read-out and setting: under `COc1ccc(C2Oc3c(OC)cc(CCCO)cc3C2CO)cc1OC` (stereo not given) stands > 100 µM; under `COc1cc2c3cc1Oc1c(OC)c(OC)cc4c1C(Cc1ccc(O)c(c1)Oc1ccc(cc1)CC3N(C)CC2)CN(C)C4` (stereo not given), 43.4 µM; under `COc1cc2[nH]c(=O)c3cc(-c4ccccc4)cc4c(Cl)nc(c1OC)c2c43`, 64 µM.

Another test has as its system NCI-H460 lung. The experiment in a line: growth of human tumour cells (NCI), 48 h.
Turning to `CCc1nc(N)nc(N)c1-c1ccc([N+](=O)[O-])c(NCc2ccccc2)c1`, the TGI was determined as 20.2 µM.
On to `COc1ccc(C2Oc3c(OC)cc(CCCO)cc3C2CO)cc1OC` (stereo not given), for which the TGI is > 100 µM.
In turn, `COc1cc2c3cc1Oc1c(OC)c(OC)cc4c1C(Cc1ccc(O)c(c1)Oc1ccc(cc1)CC3N(C)CC2)CN(C)C4` (stereo not given) showed a TGI of 33.7 µM.
For the compound `COc1cc2[nH]c(=O)c3cc(-c4ccccc4)cc4c(Cl)nc(c1OC)c2c43`, the TGI is > 82.9 µM.

The test system of the next test is KM12 colon. The experiment in a line: growth of human tumour cells (NCI), 48 h.
`CCc1nc(N)nc(N)c1-c1ccc([N+](=O)[O-])c(NCc2ccccc2)c1` showed a TGI of 49.2 µM.
With `COc1ccc(C2Oc3c(OC)cc(CCCO)cc3C2CO)cc1OC` (stereo not given), the TGI is > 100 µM.
Same read-out and setting: under `COc1cc2c3cc1Oc1c(OC)c(OC)cc4c1C(Cc1ccc(O)c(c1)Oc1ccc(cc1)CC3N(C)CC2)CN(C)C4` (stereo not given) stands 26.3 µM; under `COc1cc2[nH]c(=O)c3cc(-c4ccccc4)cc4c(Cl)nc(c1OC)c2c43`, > 100 µM.

Another test has as its system BT-549 breast. Description: growth of human tumour cells (NCI), 48 h.
On to `CCc1nc(N)nc(N)c1-c1ccc([N+](=O)[O-])c(NCc2ccccc2)c1`, for which the TGI is 47.1 µM.
As to `COc1ccc(C2Oc3c(OC)cc(CCCO)cc3C2CO)cc1OC` (stereo not given), the TGI is > 100 µM.
Same read-out and setting: under `COc1cc2c3cc1Oc1c(OC)c(OC)cc4c1C(Cc1ccc(O)c(c1)Oc1ccc(cc1)CC3N(C)CC2)CN(C)C4` (stereo not given) stands 30.2 µM.
Take `COc1cc2[nH]c(=O)c3cc(-c4ccccc4)cc4c(Cl)nc(c1OC)c2c43`: the TGI was > 67 µM.

In the next test the test system is 786-0 renal. The experiment in a line: growth of human tumour cells (NCI), 48 h.
The compound `CCc1nc(N)nc(N)c1-c1ccc([N+](=O)[O-])c(NCc2ccccc2)c1` yielded a TGI of 29.8 µM.
Consider `COc1ccc(C2Oc3c(OC)cc(CCCO)cc3C2CO)cc1OC` (stereo not given), for which the TGI was > 100 µM.
Compound `COc1cc2c3cc1Oc1c(OC)c(OC)cc4c1C(Cc1ccc(O)c(c1)Oc1ccc(cc1)CC3N(C)CC2)CN(C)C4` (stereo not given) yielded a TGI of 22.9 µM.
Turning to `COc1cc2[nH]c(=O)c3cc(-c4ccccc4)cc4c(Cl)nc(c1OC)c2c43`, the TGI is > 49.2 µM.

Another test relates to MCF7 breast. The experiment in a line: growth of human tumour cells (NCI), 48 h.
As to `CCc1nc(N)nc(N)c1-c1ccc([N+](=O)[O-])c(NCc2ccccc2)c1`, the TGI was found to be 40.2 µM.
As to `COc1ccc(C2Oc3c(OC)cc(CCCO)cc3C2CO)cc1OC` (stereo not given), the TGI is > 100 µM.
Compound `COc1cc2c3cc1Oc1c(OC)c(OC)cc4c1C(Cc1ccc(O)c(c1)Oc1ccc(cc1)CC3N(C)CC2)CN(C)C4` (stereo not given) yielded a TGI of 34.2 µM.
In turn, `COc1cc2[nH]c(=O)c3cc(-c4ccccc4)cc4c(Cl)nc(c1OC)c2c43` gave a TGI of 7.71 µM.

A further test deals with SNB-19 CNS. The experiment in a line: growth of human tumour cells (NCI), 48 h.
Compound `CCc1nc(N)nc(N)c1-c1ccc([N+](=O)[O-])c(NCc2ccccc2)c1` registered a TGI of 38.9 µM.
As for `COc1ccc(C2Oc3c(OC)cc(CCCO)cc3C2CO)cc1OC` (stereo not given), the TGI is > 100 µM.
Still for that read-out and setting: under `COc1cc2c3cc1Oc1c(OC)c(OC)cc4c1C(Cc1ccc(O)c(c1)Oc1ccc(cc1)CC3N(C)CC2)CN(C)C4` (stereo not given) stands 84.5 µM; under `COc1cc2[nH]c(=O)c3cc(-c4ccccc4)cc4c(Cl)nc(c1OC)c2c43`, > 82.8 µM.

A further test deals with CCRF-CEM leukemia. Description: growth of human tumour cells (NCI), 48 h.
As to `CCc1nc(N)nc(N)c1-c1ccc([N+](=O)[O-])c(NCc2ccccc2)c1`, the TGI amounted to 32.5 µM.
With `COc1ccc(C2Oc3c(OC)cc(CCCO)cc3C2CO)cc1OC` (stereo not given), the GI50 was 37.9 µM and > 100 µM; the TGI was > 100 µM.
In the case of `COc1cc2c3cc1Oc1c(OC)c(OC)cc4c1C(Cc1ccc(O)c(c1)Oc1ccc(cc1)CC3N(C)CC2)CN(C)C4` (stereo not given), the TGI was 15.6 µM.
Take `COc1cc2[nH]c(=O)c3cc(-c4ccccc4)cc4c(Cl)nc(c1OC)c2c43`: the TGI was > 67 µM.

The next test deals with MDA-N. The experiment in a line: growth of human tumour cells (NCI), 48 h.
`CCc1nc(N)nc(N)c1-c1ccc([N+](=O)[O-])c(NCc2ccccc2)c1`: the TGI stood at 34.8 µM.
Regarding `COc1ccc(C2Oc3c(OC)cc(CCCO)cc3C2CO)cc1OC` (stereo not given), the TGI was > 100 µM.
Still for that read-out and setting: the result for `COc1cc2c3cc1Oc1c(OC)c(OC)cc4c1C(Cc1ccc(O)c(c1)Oc1ccc(cc1)CC3N(C)CC2)CN(C)C4` (stereo not given) reads 24.5 µM; that for `COc1cc2[nH]c(=O)c3cc(-c4ccccc4)cc4c(Cl)nc(c1OC)c2c43`, 13.5 µM.

Another test deals with DU-145 prostate. The experiment in a line: growth of human tumour cells (NCI), 48 h.
With `CCc1nc(N)nc(N)c1-c1ccc([N+](=O)[O-])c(NCc2ccccc2)c1`, the TGI came out at 31.5 µM.
Turning to `COc1ccc(C2Oc3c(OC)cc(CCCO)cc3C2CO)cc1OC` (stereo not given), the TGI was > 100 µM.
Compound `COc1cc2c3cc1Oc1c(OC)c(OC)cc4c1C(Cc1ccc(O)c(c1)Oc1ccc(cc1)CC3N(C)CC2)CN(C)C4` (stereo not given) came in with a TGI of 60.8 µM.
As for `COc1cc2[nH]c(=O)c3cc(-c4ccccc4)cc4c(Cl)nc(c1OC)c2c43`, the TGI is > 100 µM.

The subject of another test is SR leukemia. Description: growth of human tumour cells (NCI), 48 h.
On to `CCc1nc(N)nc(N)c1-c1ccc([N+](=O)[O-])c(NCc2ccccc2)c1`, for which the TGI was determined as 31.1 µM.
As to `COc1ccc(C2Oc3c(OC)cc(CCCO)cc3C2CO)cc1OC` (stereo not given), the GI50 was 13.4 µM and > 100 µM; the TGI is 55.5 µM and > 100 µM.
Regarding `COc1cc2c3cc1Oc1c(OC)c(OC)cc4c1C(Cc1ccc(O)c(c1)Oc1ccc(cc1)CC3N(C)CC2)CN(C)C4` (stereo not given), the TGI was determined as 41.7 µM.
